Assay results as given in patent US12187713B2, “Immunomodulators, compositions and methods thereof” (Betta Pharmaceuticals Co., Ltd, priority 2019, dated 2025).

Target: PD-1/PD-L1 (Homo sapiens (Human), UniProt Q9NZQ7)
Experiment: PD-1/PD-L1 Binding Assay (Alphascreen)
Method in brief: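 PD-1/PD-L1 binding detected by anti-6×His acceptor and streptavidin donor beads after 120 min in the dark at 25 °C. Beforehand, the two proteins were incubated 15 min at 25 °C with inhibitor at 0.015–300 nM (1% DMSO). IC50 comes from a log concentration–response curve.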

Sequence of PD-1/PD-L1 (Q9NZQ7 19-238): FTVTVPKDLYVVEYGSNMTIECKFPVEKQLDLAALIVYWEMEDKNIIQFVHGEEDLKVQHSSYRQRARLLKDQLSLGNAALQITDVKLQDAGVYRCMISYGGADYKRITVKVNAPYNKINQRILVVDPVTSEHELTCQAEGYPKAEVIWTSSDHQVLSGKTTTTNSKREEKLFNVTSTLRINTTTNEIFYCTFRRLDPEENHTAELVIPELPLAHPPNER

Row | IC50 (numeric values) [nM] | IC50 (range symbols) [nM] | Structure (SMILES)
1 | – | 0.1 to 5 | Cc1c(-c2nc3cc(CN4CCC[C@@H]4C(=O)O)c(OC(F)F)cc3o2)cccc1-c1cccc(-c2nc3cc(CN4CCCC4)cc(C#N)c3o2)c1C [Example 145, ((2-(3′-(7-cyano-5-(pyrrolidin-1-ylmethyl)benzo[d]oxazol-2-yl)-2,2′-dimethyl-[1,1′-biphenyl]-3-yl)-6-(difluoromethoxy)benzo[d]oxazol-5-yl)methyl)-D-proline]
2 | – | 5 to 50 | Cc1c(-c2nc3c(o2)CCN(CC2CCC(=O)N2)C3)cccc1-c1cccc(-c2nc3cc(CN4CCC[C@H]4C(=O)O)c(OC(F)F)cc3o2)c1C (stereo partly drawn) [Example 193, ((6-(difluoromethoxy)-2-(2,2′-dimethyl-3′-(5-((5-oxopyrrolidin-2-yl)methyl)-4,5,6,7-tetrahydrooxazolo[4,5-c]pyridin-2-yl)-[1,1′-biphenyl]-3-yl)benzo[d]oxazol-5-yl)methyl)proline]
3 | 5.2 | – | Cc1c(-c2c[nH]c([C@@H]3CCCN3)n2)cccc1-c1cccc(-c2nc3cc(CN4CCC[C@H]4C(=O)O)c(OC(F)F)cc3o2)c1C [Example 247, ((6-(difluoromethoxy)-2-(2,2′-dimethyl-3′-(2-((S)-pyrrolidin-2-yl)-1H-imidazol-4-yl)-[1,1′-biphenyl]-3-yl)benzo[d]oxazol-5-yl)methyl)-L-proline]
4 | 1.4 | – | Cc1c(-c2nc3c(o2)CCN(CCO)C3)cccc1-c1cccc(-c2nc3cc(CN4CCC[C@H]4C(=O)O)c(OC(F)F)cc3o2)c1C [Example 206, ((6-(difluoromethoxy)-2-(3′-(5-(2-hydroxyethyl)-4,5,6,7-tetrahydrooxazolo[4,5-c]pyridin-2-yl)-2,2′-dimethyl-[1,1′-biphenyl]-3-yl)benzo[d]oxazol-5-yl)methyl)-L-proline]
5 | – | 0.1 to 5 | Cc1c(-c2nc3cc(CN4CCCC4C)c(OC(F)F)cc3o2)cccc1-c1cccc(-c2nc3cc(CN4CCC[C@H]4C(=O)O)c(OC(F)F)cc3o2)c1C (stereo partly drawn) [Example 38, ((6-(difluoromethoxy)-2-(3′-(6-(difluoromethoxy)-5-((2-methylpyrrolidin-1-yl)methyl)benzo[d]oxazol-2-yl)-2,2′-dimethyl-[1,1′-biphenyl]-3-yl)benzo[d]oxazol-5-yl)methyl)-L-proline]

The next lines start with the compound.

Row | Structure (SMILES) | IC50 (numeric values) [nM] | IC50 (range symbols) [nM]
6 | Cc1c(-c2nc3cc(CN4CC5CC(=O)CC4C5)c(OC(F)F)cc3o2)cccc1-c1cccc(-c2nc3cc(CN4CCC[C@H]4C(=O)O)c(OC(F)F)cc3o2)c1C (stereo partly drawn) [Example 75, ((6-(difluoromethoxy)-2-(3′-(6-(difluoromethoxy)-5-((3-oxo-6-azabicyclo [3.2.1]octan-6-yl)methyl)benzo[d]oxazol-2-yl)-2,2′-dimethyl-[1,1′-biphenyl]-3-yl)benzo[d]oxazol-5-yl)methyl)-L-proline] | 10 | –
7 | Cc1c(-c2nc3cc(CN4CCC[C@H]4C(N)=O)c(OC(F)F)cc3o2)cccc1-c1cccc(-c2nc3cc(CN4CCC[C@H]4C(=O)O)c(OC(F)F)cc3o2)c1C [Example 11, ((2-(3′-(5-(((S)-2-carbamoylpyrrolidin-1-yl)methyl)-6-(difluoromethoxy)benzo[d]oxazol-2-yl)-2,2′-dimethyl-[1,1′-biphenyl]-3-yl)-6-(difluoromethoxy)benzo[d]oxazol-5-yl)methyl)-L-proline] | 33 | –
8 | COc1nc(-c2cccc(-c3cccc(-c4nc5cc(CN6CCC[C@H]6C(=O)O)c(OC(F)F)cc5o4)c3C)c2Cl)cnc1CNCC1CCC(=O)N1 (stereo partly drawn) [Example 287, ((2-(2′-chloro-3′-(6-methoxy-5-((((5-oxopyrrolidin-2-yl)methyl)amino)methyl)pyrazin-2-yl)-2-methyl-[1,1′-biphenyl]-3-yl)-6-(difluoromethoxy)benzo[d]oxazol-5-yl)methyl)-L-proline] | – | 0.1 to 5
9 | COC1CN(Cc2cc3nc(-c4cccc(-c5cccc(-c6nc7cc(CN8CCC[C@H]8C(=O)O)c(OC(F)F)cc7o6)c5C)c4C)oc3cc2OC(F)F)C1 [Example 43, ((6-(difluoromethoxy)-2-(3′-(6-(difluoromethoxy)-5-((3-methoxyazetidin-1-yl)methyl)benzo[d]oxazol-2-yl)-2,2′-dimethyl-[1,1′-biphenyl]-3-yl)benzo[d]oxazol-5-yl)methyl)-L-proline] | – | 5 to 50
